{
  "source": "ChEMBL document CHEMBL1146562",
  "about": "“Turbinatine, a potential key intermediate in the biosynthesis of corynanthean-type indole alkaloids” (2003)",
  "key": {"Saccharomyces cerevisiae [1]": {"tested_on": "Saccharomyces cerevisiae", "assay": "DNA damaging activity in yeast RS 188N mutant assessed as drug level required to produce 12 mm zone of inhibition", "format": "functional"}, "Saccharomyces cerevisiae [2]": {"tested_on": "Saccharomyces cerevisiae", "assay": "DNA damaging activity in yeast RS 322YK mutant assessed as drug level required to produce 12 mm zone of inhibition", "format": "functional"}},
  "data": [
    {"smiles": "C=C[C@H]1[C@H](O[C@@H]2O[C@H](CO)[C@@H](O)[C@H](O)[C@H]2O)OC=C(C(=O)OC)[C@H]1C[C@@H]1N[C@@H](C(=O)O)Cc2c1[nH]c1ccccc21", "values": [
      {"measurement": "IC12", "setting": "Saccharomyces cerevisiae [1]", "value": "> 250", "unit": "µg/mL"},
      {"measurement": "IC12", "setting": "Saccharomyces cerevisiae [2]", "value": 100, "unit": "µg/mL"}
    ]},
    {"smiles": "C/C=C(\\C=O)[C@@H]1C[C@H]2c3[nH]c4ccccc4c3CCN2C=C1C(=O)OC", "note": "[ISOVALLESIACHOTAMINE]", "values": [
      {"measurement": "IC12", "setting": "Saccharomyces cerevisiae [1]", "value": "> 250", "unit": "µg/mL"},
      {"measurement": "IC12", "setting": "Saccharomyces cerevisiae [2]", "value": 100, "unit": "µg/mL"}
    ]},
    {"smiles": "C=C[C@H]1[C@H](O[C@@H]2O[C@H](CO)[C@@H](O)[C@H](O)[C@H]2O)OC=C(C(=O)OC)[C@H]1C[C@@H]1NCCc2c1[nH]c1ccccc21", "note": "[STRICTOSIDINE]", "values": [
      {"measurement": "IC12", "setting": "Saccharomyces cerevisiae [1]", "value": "> 250", "unit": "µg/mL"},
      {"measurement": "IC12", "setting": "Saccharomyces cerevisiae [2]", "value": 100, "unit": "µg/mL"}
    ]},
    {"smiles": "C=C[C@H]1[C@@H](/C(=C/O)C(=O)OC)C[C@H]2c3[nH]c4ccccc4c3CCN2[C@H]1O[C@H]1O[C@@H](CO)[C@H](O)[C@@H](O)[C@@H]1O", "note": "[TURBINATINE]", "values": [
      {"measurement": "IC12", "setting": "Saccharomyces cerevisiae [1]", "value": "> 250", "unit": "µg/mL"},
      {"measurement": "IC12", "setting": "Saccharomyces cerevisiae [2]", "value": 100, "unit": "µg/mL"}
    ]},
    {"smiles": "C/C=C(/C=O)[C@@H]1C[C@H]2c3[nH]c4ccccc4c3CCN2C=C1C(=O)OC", "note": "[VALLESIACHOTAMINE]", "values": [
      {"measurement": "IC12", "setting": "Saccharomyces cerevisiae [1]", "value": "> 250", "unit": "µg/mL"},
      {"measurement": "IC12", "setting": "Saccharomyces cerevisiae [2]", "value": 100, "unit": "µg/mL"}
    ]}
  ]
}
